Source: PubChem BioAssay (NCI)
Where “and” joins values, the source holds several entries; their conditions need not be identical. Equal entries are not always repeated.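 Growth conditions: 96-well plates. Treatment: test compound, 48 hours, 5 concentrations. Analysis: linear interpolation between bracketing concentrations; unreached endpoints set to highest concentration. GI50 = concentration required for 50% inhibition of growth. The concentration for full growth arrest is given as TGI.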

Key:
Test in all cases: NCI-60 cell line screen, 48 h
DU-145 prostate = tested on: DU-145 prostate
EKVX NSCLC = tested on: EKVX NSCLC
HOP-62 NSCLC = tested on: HOP-62 NSCLC
M14 melanoma = tested on: M14 melanoma
MDA-MB-231 breast = tested on: MDA-MB-231 breast
RXF 393 renal = tested on: RXF 393 renal
SN12C renal = tested on: SN12C renal
SR leukemia = tested on: SR leukemia
U251 CNS = tested on: U251 CNS
UACC-257 melanoma = tested on: UACC-257 melanoma

Structure (SMILES) | GI50 (DU-145 prostate) | TGI (DU-145 prostate) | GI50 (EKVX NSCLC) | TGI (EKVX NSCLC) | GI50 (HOP-62 NSCLC) | TGI (HOP-62 NSCLC) | GI50 (M14 melanoma) | TGI (M14 melanoma) | GI50 (MDA-MB-231 breast) | TGI (MDA-MB-231 breast) | GI50 (RXF 393 renal) | TGI (RXF 393 renal) | GI50 (SN12C renal) | TGI (SN12C renal) | GI50 (SR leukemia) | TGI (SR leukemia) | GI50 (U251 CNS) | TGI (U251 CNS) | GI50 (UACC-257 melanoma) | TGI (UACC-257 melanoma)
C=C1CCC2C3(C)COC(c4ccccc4Br)OC3CCC2(C)C1C/C=C1/C(=O)OCC1OC(C)=O (configuration not stated) | 1.58 µM | 2.99 µM | 2.55 µM | 10.1 µM | 1.94 µM | 3.46 µM | 1.53 µM | 2.86 µM | 1.47 µM | 3.16 µM | 1.54 µM | 2.96 µM | 1.36 µM | 3.28 µM | 0.215 µM | 0.706 µM | 1.22 µM | 2.46 µM | 1.57 µM | 2.99 µM
c1ccc(P(CCP(CCP(c2ccccc2)c2ccccc2)c2ccccc2)CCP(c2ccccc2)c2ccccc2)cc1 (configuration not stated) | – | > 10 µM | > 10 µM | > 10 µM | – | > 10 µM | > 10 µM and 4.18 µM | > 10 µM | > 10 µM and 3.58 µM | > 10 µM | – | > 10 µM | > 10 µM and 3.94 µM | > 10 µM | – | > 10 µM | > 10 µM and 1.04 µM | > 10 µM | – | > 10 µM
O=C(c1cccnc1)c1cc(-c2ccccn2)c(=O)n2ccccc12 | > 100 µM | > 100 µM | > 100 µM | > 100 µM | > 100 µM | > 100 µM | > 100 µM | > 100 µM | > 100 µM | > 100 µM | > 100 µM | > 100 µM | > 100 µM | > 100 µM | > 100 µM | > 100 µM | > 100 µM | > 100 µM | > 100 µM | > 100 µM
c1ccc(CSc2nnc3c4ccccc4c4ccccc4c3n2)cc1 | – | > 100 µM | – | > 100 µM | – | 75.6 µM | – | > 100 µM | – | > 100 µM | – | > 79.5 µM | – | > 100 µM | – | > 100 µM | – | > 100 µM | – | > 100 µM
CN(C)CC1CCCCCC(CN(C)C)C1=O (configuration not stated) | 3.19 µM | 12.4 µM | 12.5 µM | 37.3 µM | 13 µM | 27.3 µM | 1.19 µM | 11.9 µM | 8.68 µM | 23.8 µM | 1.58 µM | 3.35 µM | 7.9 µM | 22.8 µM | 2.1 µM | 7.14 µM | 11.1 µM | 25.6 µM | 1.77 µM | 4.6 µM
COc1cc2c3c(n(C)c(=O)c2cc1OC)-c1cc2c(cc1/C3=C\C(N)CN)OCO2 (configuration not stated) | 2.02 µM | 10 µM | 2.1 µM | 9.95 µM | 1.29 µM | 8.91 µM | 2.23 µM | 7.26 µM | 4.15 µM | > 53.3 µM | 0.666 µM | 3.38 µM | 1.81 µM | > 26.4 µM | 0.219 µM | – | 0.371 µM | 2.42 µM | 6.38 µM | 41.4 µM
CC1(C)CC[C@]2(C(=O)N3CCOCC3)CC[C@]3(C)C(=CC[C@@H]4[C@@]5(C)C/C(=C/c6ccncc6)C(=O)C(C)(C)[C@@H]5CC[C@]43C)[C@@H]2C1 | 2.77 µM | 36.5 µM | 2.87 µM | > 100 µM | 1.76 µM | 6.73 µM | 1.41 µM | 5.23 µM | 3.06 µM | 41.1 µM | 1.22 µM | 3.03 µM | 2.37 µM | 20.6 µM | 0.365 µM | > 100 µM | 1.89 µM | 10.3 µM | 3.68 µM | > 100 µM
S=C(Nc1cc(Cl)c(Cl)cc1Cl)SCc1ccccc1 | – | > 100 µM | – | > 100 µM | – | 56 µM | – | > 100 µM | – | 29.6 µM | – | > 100 µM | – | > 100 µM | – | 10.8 µM | – | 52.7 µM | – | 37.6 µM
CCCOc1nc(SCCC)nc2c1cnn2-c1ccccc1 | > 100 µM | > 100 µM | 39.1 µM | > 100 µM | > 100 µM | > 100 µM | > 100 µM | > 100 µM | > 100 µM | > 100 µM | 78.9 µM | > 100 µM | > 100 µM | > 100 µM | 32.2 µM | > 100 µM | > 100 µM | > 100 µM | > 100 µM | > 100 µM
CCCCCCCOc1c(OC)cc(C2CC(=O)Nc3c2c(C)nn3-c2nc3ccccc3[nH]2)cc1OC (configuration not stated) | 4.66 µM | > 100 µM | 2.54 µM | 8.15 µM | 3.09 µM | 14.2 µM | 4.01 µM | > 100 µM | 1.98 µM | 4.12 µM | 1.96 µM | 5.02 µM | 3.48 µM | > 100 µM | 3.08 µM | > 100 µM | 3.72 µM | > 100 µM | 4.03 µM | > 100 µM
CSC1(SC2=NCCN2)SC2(NCCN2)S1 | – | 28.2 µM | – | 40.5 µM | – | 34.4 µM | – | 44.3 µM | – | 38.6 µM | – | 20.4 µM | – | 41.4 µM | – | 37.7 µM | – | 32.8 µM | – | 46.6 µM
CN(C)c1ccc(C(=C2C=CC(=[N+](C)C)C=C2)c2ccc(N(C)C)cc2)cc1 | 0.0783 µM | 1.23 µM | 0.149 µM | 1.41 µM and 1.5 µM | 0.0447 µM | 1.11 µM and 2.43 µM | 0.14 µM | 0.598 µM and 1.39 µM | 0.246 µM | 1.26 µM | 0.113 µM | 0.468 µM and 0.695 µM | 0.04 µM | 1.43 µM and 0.902 µM | 0.0591 µM | 0.672 µM and 3.2 µM | 0.0462 µM | 0.565 µM and 1.14 µM | 0.228 µM | 0.763 µM and 0.416 µM
CCN(CC)c1ccc(C(=N)c2ccc(N(C)C)cc2)cc1 | 1.7 µM | 7.18 µM | 2.04 µM | 16.5 µM | 1.55 µM | 12.2 µM | 0.167 µM | 2.06 µM | 1.33 µM | 3.87 µM | 1.18 µM | 4.02 µM | 2.36 µM | 9.14 µM | 0.301 µM | 2.8 µM | 1.33 µM | 7.57 µM | 1.36 µM | 5.11 µM
COc1cc(C(=O)/C=C/c2cccnc2Nc2ccccc2)cc(OC)c1OC | 0.723 µM | 1.94 µM | 1.61 µM | 3.04 µM | 0.657 µM | 1.88 µM | 1.5 µM | 2.92 µM | 1.4 µM | 3.09 µM | 1.12 µM | 2.37 µM | 1.21 µM | 2.55 µM | 0.346 µM | > 100 µM | 1.12 µM | 2.39 µM | 1.51 µM | 2.86 µM
COc1ccc2c(c1)C(C)Cc1c(Cl)nc(C)nc1N2C (configuration not stated) | 3.72 µM | 33.5 µM | 3.01 µM | 30.7 µM | 2.22 µM | 36.3 µM | 1.34 µM | 12.4 µM | 4.34 µM | 34.9 µM | 2.78 µM | 20.8 µM | 7.22 µM | 25.1 µM | 2.44 µM | > 100 µM | 3.15 µM | 15.9 µM | 13.1 µM | 37.8 µM
CS(=O)(=O)Nc1ccc(N=Cc2c(O)[nH]c3ccccc23)cc1 | > 25 µM | > 25 µM | > 25 µM | > 25 µM | > 25 µM | > 25 µM | > 25 µM | > 25 µM | > 25 µM | > 25 µM | > 25 µM | > 25 µM | > 25 µM | > 25 µM | > 25 µM | > 25 µM | > 25 µM | > 25 µM | > 25 µM | > 25 µM
CCN1C(=O)N(CC)C2C1NN=c1s/c(=C\c3cc4ccccc4[nH]3)c(=O)n12 (configuration not stated) | 0.0225 µM | > 100 µM | 0.0453 µM | > 100 µM | 0.0412 µM | 18.7 µM | 0.0237 µM | > 100 µM | 0.0118 µM | 27 µM | < 0.0187 µM | 11.6 µM | 0.0241 µM | 14.6 µM | < 0.01 µM | – | 0.0383 µM | 17.4 µM | 12.2 µM | > 100 µM
Nc1nc(N)c(N=O)c(OCC2CCCCC2)n1 | 5.93 µM | > 100 µM | 27 µM | > 94.5 µM and 64.2 µM | – | > 100 µM and 76.5 µM | 11.8 µM | > 100 µM and 52.2 µM | 8.07 µM | 77.9 µM and > 31.4 µM | 8.04 µM | 42.3 µM and 48.1 µM | 5.87 µM | > 100 µM and 62.8 µM | 6.22 µM | > 85.9 µM and 27.4 µM | 13.9 µM | > 100 µM and 52.5 µM | 17.2 µM | > 100 µM and 38.9 µM
COc1ccc(/C=C2\CCC(CN(C)C)C2=O)cc1OC (configuration not stated) | – | 20.4 µM | – | 34.1 µM | – | 39.9 µM | – | 16.1 µM | – | 7.71 µM | – | 5.16 µM | – | 8.35 µM | – | 9.26 µM | – | 30.8 µM | – | 17 µM
